{"source": "the NIST ThermoML archive (doi:10.1016/j.jct.2015.04.015)", "conditions": "Gas, Rotating-body viscometer developed for low-density gases", "note": "Numbers after ± are expanded uncertainties."}
{"smiles": "O=C=O", "note": "[carbon dioxide]", "values": [{"measurement": "viscosity", "setting": "253.15 K, 100.2 kPa", "value": "0.01271 ± 5.2e-05", "unit": "mPa·s"}, {"measurement": "viscosity", "setting": "253.15 K, 153 kPa", "value": "0.01271 ± 5.2e-05", "unit": "mPa·s"}, {"measurement": "viscosity", "setting": "253.15 K, 200.5 kPa", "value": "0.01271 ± 5.2e-05", "unit": "mPa·s"}, {"measurement": "viscosity", "setting": "253.15 K, 300.5 kPa", "value": "0.01271 ± 5.2e-05", "unit": "mPa·s"}, {"measurement": "viscosity", "setting": "253.15 K, 401.4 kPa", "value": "0.01272 ± 5.2e-05", "unit": "mPa·s"}, {"measurement": "viscosity", "setting": "273.17 K, 100.4 kPa", "value": "0.01371 ± 5.2e-05", "unit": "mPa·s"}, {"measurement": "viscosity", "setting": "273.17 K, 151.8 kPa", "value": "0.0137 ± 5.2e-05", "unit": "mPa·s"}, {"measurement": "viscosity", "setting": "273.17 K, 203.4 kPa", "value": "0.0137 ± 5.2e-05", "unit": "mPa·s"}, {"measurement": "viscosity", "setting": "273.17 K, 301.7 kPa", "value": "0.01371 ± 5.2e-05", "unit": "mPa·s"}, {"measurement": "viscosity", "setting": "273.17 K, 399.4 kPa", "value": "0.01371 ± 5.2e-05", "unit": "mPa·s"}, {"measurement": "viscosity", "setting": "273.17 K, 502.8 kPa", "value": "0.01372 ± 5.2e-05", "unit": "mPa·s"}, {"measurement": "viscosity", "setting": "298.15 K, 100.8 kPa", "value": "0.0149 ± 3e-05", "unit": "mPa·s"}, {"measurement": "viscosity", "setting": "298.15 K, 150.4 kPa", "value": "0.01491 ± 3e-05", "unit": "mPa·s"}, {"measurement": "viscosity", "setting": "298.15 K, 201.6 kPa", "value": "0.0149 ± 3e-05", "unit": "mPa·s"}, {"measurement": "viscosity", "setting": "298.15 K, 204.6 kPa", "value": "0.0149 ± 3e-05", "unit": "mPa·s"}, {"measurement": "viscosity", "setting": "298.15 K, 303.2 kPa", "value": "0.01491 ± 3e-05", "unit": "mPa·s"}, {"measurement": "viscosity", "setting": "298.15 K, 303.3 kPa", "value": "0.01491 ± 3e-05", "unit": "mPa·s"}, {"measurement": "viscosity", "setting": "298.15 K, 400 kPa", "value": "0.01493 ± 3e-05", "unit": "mPa·s"}, {"measurement": "viscosity", "setting": "298.15 K, 402.9 kPa", "value": "0.01492 ± 3e-05", "unit": "mPa·s"}, {"measurement": "viscosity", "setting": "298.15 K, 498.5 kPa", "value": "0.01493 ± 3e-05", "unit": "mPa·s"}, {"measurement": "viscosity", "setting": "298.15 K, 499.7 kPa", "value": "0.01494 ± 3e-05", "unit": "mPa·s"}, {"measurement": "viscosity", "setting": "298.15 K, 502.8 kPa", "value": "0.01494 ± 3e-05", "unit": "mPa·s"}, {"measurement": "viscosity", "setting": "298.15 K, 604.5 kPa", "value": "0.01494 ± 3e-05", "unit": "mPa·s"}, {"measurement": "viscosity", "setting": "323.16 K, 100.8 kPa", "value": "0.01608 ± 5.1e-05", "unit": "mPa·s"}, {"measurement": "viscosity", "setting": "323.16 K, 151.6 kPa", "value": "0.01608 ± 5.1e-05", "unit": "mPa·s"}, {"measurement": "viscosity", "setting": "323.16 K, 200.9 kPa", "value": "0.01609 ± 5.1e-05", "unit": "mPa·s"}, {"measurement": "viscosity", "setting": "323.16 K, 304.9 kPa", "value": "0.0161 ± 5.1e-05", "unit": "mPa·s"}, {"measurement": "viscosity", "setting": "323.16 K, 400.7 kPa", "value": "0.0161 ± 5.1e-05", "unit": "mPa·s"}, {"measurement": "viscosity", "setting": "323.16 K, 500.4 kPa", "value": "0.01612 ± 5.1e-05", "unit": "mPa·s"}, {"measurement": "viscosity", "setting": "323.16 K, 598.7 kPa", "value": "0.01613 ± 5.1e-05", "unit": "mPa·s"}, {"measurement": "viscosity", "setting": "373.16 K, 100.4 kPa", "value": "0.0184 ± 5e-05", "unit": "mPa·s"}, {"measurement": "viscosity", "setting": "373.16 K, 151.4 kPa", "value": "0.0184 ± 5e-05", "unit": "mPa·s"}, {"measurement": "viscosity", "setting": "373.16 K, 201.1 kPa", "value": "0.0184 ± 5e-05", "unit": "mPa·s"}, {"measurement": "viscosity", "setting": "373.16 K, 296.8 kPa", "value": "0.01842 ± 5e-05", "unit": "mPa·s"}, {"measurement": "viscosity", "setting": "373.16 K, 399.9 kPa", "value": "0.01843 ± 5e-05", "unit": "mPa·s"}, {"measurement": "viscosity", "setting": "373.16 K, 604.9 kPa", "value": "0.01846 ± 5e-05", "unit": "mPa·s"}, {"measurement": "viscosity", "setting": "373.16 K, 802.6 kPa", "value": "0.01849 ± 5e-05", "unit": "mPa·s"}, {"measurement": "viscosity", "setting": "423.14 K, 100.2 kPa", "value": "0.02065 ± 5e-05", "unit": "mPa·s"}, {"measurement": "viscosity", "setting": "423.14 K, 153.3 kPa", "value": "0.02066 ± 5e-05", "unit": "mPa·s"}, {"measurement": "viscosity", "setting": "423.14 K, 204.1 kPa", "value": "0.02065 ± 5e-05", "unit": "mPa·s"}, {"measurement": "viscosity", "setting": "423.14 K, 302 kPa", "value": "0.02066 ± 5e-05", "unit": "mPa·s"}, {"measurement": "viscosity", "setting": "423.14 K, 397.6 kPa", "value": "0.02068 ± 5e-05", "unit": "mPa·s"}, {"measurement": "viscosity", "setting": "423.14 K, 600.4 kPa", "value": "0.0207 ± 5e-05", "unit": "mPa·s"}, {"measurement": "viscosity", "setting": "423.14 K, 800.8 kPa", "value": "0.02073 ± 5e-05", "unit": "mPa·s"}, {"measurement": "viscosity", "setting": "423.14 K, 998.9 kPa", "value": "0.02077 ± 5e-05", "unit": "mPa·s"}, {"measurement": "viscosity", "setting": "473.15 K, 153 kPa", "value": "0.02275 ± 5e-05", "unit": "mPa·s"}, {"measurement": "viscosity", "setting": "473.15 K, 202.5 kPa", "value": "0.02277 ± 5e-05", "unit": "mPa·s"}, {"measurement": "viscosity", "setting": "473.15 K, 403.5 kPa", "value": "0.02278 ± 5e-05", "unit": "mPa·s"}, {"measurement": "viscosity", "setting": "473.15 K, 601.1 kPa", "value": "0.02282 ± 5e-05", "unit": "mPa·s"}, {"measurement": "viscosity", "setting": "473.15 K, 803 kPa", "value": "0.02284 ± 5e-05", "unit": "mPa·s"}, {"measurement": "viscosity", "setting": "473.15 K, 997.8 kPa", "value": "0.02288 ± 5e-05", "unit": "mPa·s"}, {"measurement": "viscosity", "setting": "473.15 K, 1200.9 kPa", "value": "0.0229 ± 5e-05", "unit": "mPa·s"}, {"measurement": "viscosity", "setting": "473.16 K, 100.1 kPa", "value": "0.02275 ± 5e-05", "unit": "mPa·s"}]}
